Earlier results as cited in patent publication US5661161A, “Inhibitors of farnesyl-protein transferase” (Merck & Co., Inc., priority 1995, dated 1997).

Test system: farnesyl-protein transferase
Conditions: literature; via inhibition of HMG-CoA reductase

Compound | Indirect inhibition of farnesyl-protein transferase in vivo
CC[C@H](C)C(=O)O[C@H]1CCC=C2C=C[C@H](C)[C@H](CC[C@@H]3C[C@@H](O)CC(=O)O3)[C@H]21 [compactin] | Indirect inhibition
CC[C@H](C)C(=O)O[C@H]1C[C@@H](C)C=C2C=C[C@H](C)[C@H](CC[C@@H]3C[C@@H](O)CC(=O)O3)[C@H]21 [lovastatin] | Indirect inhibition
